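96-well plates; 48 h exposure; 5 concentrations. Endpoints by linear interpolation between flanking doses. Not reached: highest tested concentration assigned. GI50: concentration for 50% inhibition of growth.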 The source made the active and inactive calls. Rule as the data show it: active = GI50 up to about 1.1 µM and inactive = higher.
Assays:
Assay in all cases: NCI-60 cell line screen, 48 h
XF498 = test system: XF498
SN12C = test system: SN12C
SF-539 = test system: SF-539
SF-295 = test system: SF-295
SK-OV-3 = test system: SK-OV-3
OVCAR-8 = test system: OVCAR-8
HL-60 = test system: HL-60
RPMI-8226 = test system: RPMI-8226
SK-MEL-28 = test system: SK-MEL-28
SW-620 = test system: SW-620
RXF 393 = test system: RXF 393
OVCAR-4 = test system: OVCAR-4
U-251 = test system: U-251
KM12 = test system: KM12
OVCAR-3 = test system: OVCAR-3
DMS-273 = test system: DMS-273
CCRF-CEM = test system: CCRF-CEM
SNB-19 = test system: SNB-19
M19-MEL = test system: M19-MEL
IGROV-1 = test system: IGROV-1
SNB-78 = test system: SNB-78
HT-29 = test system: HT-29
HCT-116 = test system: HCT-116
SF-268 = test system: SF-268
DMS-114 = test system: DMS-114
A549 = test system: A549
MOLT-4 = test system: MOLT-4
M14 = test system: M14
NCI-H23 = test system: NCI-H23
NCI-H460 = test system: NCI-H460
TK-10 = test system: TK-10
KM-20L2 = test system: KM-20L2
LXFL 529 = test system: LXFL 529
LOX IMVI = test system: LOX IMVI
786-0 = test system: 786-0
K562 = test system: K562
COLO 205 = test system: COLO 205
UACC-62 = test system: UACC-62
HOP-18 = test system: HOP-18
SNB-75 = test system: SNB-75
NCI-H522 = test system: NCI-H522
SK-MEL-5 = test system: SK-MEL-5
ACHN = test system: ACHN
EKVX = test system: EKVX
UACC-257 = test system: UACC-257
HOP-62 = test system: HOP-62
UO-31 = test system: UO-31
Malme-3M = test system: Malme-3M
NCI-H226 = test system: NCI-H226
SK-MEL-2 = test system: SK-MEL-2
HCT-15 = test system: HCT-15
SR = test system: SR
HOP-92 = test system: HOP-92
CAKI-1 = test system: CAKI-1
MDA-MB-435 = test system: MDA-MB-435
MCF7 = test system: MCF7
NCI/ADR-RES = test system: NCI/ADR-RES
HCC 2998 = test system: HCC 2998
BT-549 = test system: BT-549
PC-3 = test system: PC-3
MDA-MB-231 = test system: MDA-MB-231
MDA-N = test system: MDA-N
DU-145 = test system: DU-145
DLD-1 = test system: DLD-1
T47D = test system: T47D
A498 = test system: A498
OVCAR-5 = test system: OVCAR-5
Hs-578T = test system: Hs-578T

`COc1ccc2c(c1)CCCC1C3=NCCC3(C)CSC21` (stereo not drawn) was tested, and the GI50 (XF498) was > 100 µM (inactive), the GI50 (SN12C) was > 100 µM (inactive) and the GI50 (SF-539) was 51.6 µM (inactive). The GI50 (SF-295) was 86.9 µM (inactive), the GI50 (SK-OV-3) was > 100 µM (inactive) and the GI50 (OVCAR-8) was 59.7 µM (inactive). For the same molecule, the GI50 (HL-60) was 17.1 µM (inactive), the GI50 (RPMI-8226) was 55.8 µM (inactive) and the GI50 (SK-MEL-28) was 36.2 µM (inactive). The GI50 (SW-620) was > 100 µM (inactive), the GI50 (RXF 393) was 95.5 µM (inactive) and the GI50 (OVCAR-4) was > 100 µM (inactive). The GI50 (U-251) was 74.5 µM (inactive), the GI50 (KM12) was > 100 µM (inactive) and the GI50 (OVCAR-3) was 97.3 µM (inactive). For the same molecule, the GI50 (DMS-273) was 36.6 µM (inactive), the GI50 (CCRF-CEM) was 70.3 µM (inactive) and the GI50 (SNB-19) was > 100 µM (inactive). The GI50 (M19-MEL) was 72.1 µM (inactive), the GI50 (IGROV-1) was > 100 µM (inactive) and the GI50 (SNB-78) was > 100 µM (inactive). For the same molecule, the GI50 (HT-29) was 32.4 µM (inactive), the GI50 (HCT-116) was 37.5 µM (inactive) and the GI50 (SF-268) was > 100 µM (inactive). For the same molecule, the GI50 (DMS-114) was 37.8 µM (inactive), the GI50 (A549) was > 100 µM (inactive) and the GI50 (MOLT-4) was 32.6 µM (inactive). For the same molecule, the GI50 (M14) was 37.4 µM (inactive), the GI50 (NCI-H23) was 47.3 µM (inactive) and the GI50 (NCI-H460) was 74 µM (inactive). For the same molecule, the GI50 (TK-10) was 70.8 µM (inactive), the GI50 (KM-20L2) was 22.8 µM (inactive) and the GI50 (LXFL 529) was 58.5 µM (inactive). The GI50 (LOX IMVI) was 30.2 µM (inactive), the GI50 (786-0) was 70.3 µM (inactive) and the GI50 (K562) was 31 µM (inactive). For the same molecule, the GI50 (COLO 205) was 52.6 µM (inactive), the GI50 (UACC-62) was 55 µM (inactive) and the GI50 (HOP-18) was 80.4 µM (inactive). The GI50 (SNB-75) was 67.8 µM (inactive), the GI50 (NCI-H522) was 86.9 µM (inactive) and the GI50 (SK-MEL-5) was 42.8 µM (inactive).
In the case of `Cc1cccc(NC(=O)CSc2nnc(-c3ccc(/N=C\c4ccc(Cl)cc4)cc3)o2)c1`, the GI50 (XF498) is reported as > 100 µM (inactive), the GI50 (ACHN) is reported as > 100 µM (inactive) and the GI50 (EKVX) is reported as > 100 µM (inactive). The GI50 (SN12C) was > 100 µM (inactive), the GI50 (SF-295) was > 100 µM (inactive) and the GI50 (SK-OV-3) was > 100 µM (inactive). For the same molecule, the GI50 (OVCAR-8) was > 100 µM (inactive), the GI50 (HL-60) was > 100 µM (inactive) and the GI50 (RPMI-8226) was > 100 µM (inactive). For the same molecule, the GI50 (UACC-257) was > 100 µM (inactive), the GI50 (HOP-62) was > 100 µM (inactive) and the GI50 (UO-31) was > 100 µM (inactive). For the same molecule, the GI50 (SK-MEL-28) was > 100 µM (inactive), the GI50 (SW-620) was > 100 µM (inactive) and the GI50 (RXF 393) was 60.4 µM (inactive). The GI50 (Malme-3M) was > 100 µM (inactive), the GI50 (OVCAR-4) was 69.2 µM (inactive) and the GI50 (U-251) was > 100 µM (inactive). For the same molecule, the GI50 (KM12) was > 100 µM (inactive), the GI50 (DMS-273) was > 100 µM (inactive) and the GI50 (CCRF-CEM) was > 100 µM (inactive). The GI50 (NCI-H226) was > 100 µM (inactive), the GI50 (SNB-19) was > 100 µM (inactive) and the GI50 (M19-MEL) was > 100 µM (inactive). For the same molecule, the GI50 (SK-MEL-2) was > 100 µM (inactive), the GI50 (SNB-78) was > 100 µM (inactive) and the GI50 (HT-29) was > 100 µM (inactive). For the same molecule, the GI50 (HCT-116) was > 100 µM (inactive), the GI50 (SF-268) was > 100 µM (inactive) and the GI50 (DMS-114) was > 100 µM (inactive). For the same molecule, the GI50 (A549) was > 100 µM (inactive), the GI50 (HCT-15) was greater than 100 µM and the GI50 (MOLT-4) was > 100 µM (inactive). For the same molecule, the GI50 (M14) was > 100 µM (inactive), the GI50 (NCI-H23) was > 100 µM (inactive) and the GI50 (NCI-H460) was > 100 µM (inactive). The GI50 (TK-10) was > 100 µM (inactive), the GI50 (KM-20L2) was > 100 µM (inactive) and the GI50 (LXFL 529) was > 100 µM (inactive). The GI50 (LOX IMVI) was 72.9 µM (inactive), the GI50 (786-0) was > 100 µM (inactive) and the GI50 (K562) was > 100 µM (inactive). For the same molecule, the GI50 (COLO 205) was > 100 µM (inactive), the GI50 (UACC-62) was > 100 µM (inactive) and the GI50 (HOP-18) was > 100 µM (inactive). The GI50 (SNB-75) was > 100 µM (inactive), the GI50 (NCI-H522) was 38.2 µM (inactive) and the GI50 (SR) was > 100 µM (inactive). The GI50 (SK-MEL-5) was > 100 µM (inactive).
With `CCCCCC/C=C1\CCC(CN(C)C)C1=O` (stereo not drawn) the GI50 (HOP-92) was 11.4 µM (inactive), the GI50 (XF498) was 3.31 µM (inactive) and the GI50 (ACHN) was 9.64 µM (inactive). For the same molecule, the GI50 (EKVX) was 16 µM (inactive), the GI50 (SN12C) was 3.74 µM (inactive) and the GI50 (SF-539) was 15.1 µM (inactive). The GI50 (SF-295) was 12.7 µM (inactive), the GI50 (SK-OV-3) was 20.3 µM (inactive) and the GI50 (OVCAR-8) was 4.44 µM (inactive). For the same molecule, the GI50 (HL-60) was 1.52 µM (inactive), the GI50 (CAKI-1) was 4.75 µM (inactive) and the GI50 (RPMI-8226) was 0.641 µM (active). The GI50 (UACC-257) was 7.71 µM (inactive), the GI50 (HOP-62) was 19.6 µM (inactive) and the GI50 (UO-31) was 15.4 µM (inactive). The GI50 (SK-MEL-28) was 4.14 µM (inactive), the GI50 (SW-620) was 2.56 µM (inactive) and the GI50 (RXF 393) was 3.51 µM (inactive). For the same molecule, the GI50 (Malme-3M) was 7.23 µM (inactive), the GI50 (MDA-MB-435) was 8.04 µM (inactive) and the GI50 (MCF7) was 1.86 µM (inactive). The GI50 (OVCAR-4) was 19.6 µM (inactive), the GI50 (NCI/ADR-RES) was 7.38 µM (inactive) and the GI50 (U-251) was 4.25 µM (inactive). The GI50 (KM12) was 2.48 µM (inactive), the GI50 (OVCAR-3) was 6.61 µM (inactive) and the GI50 (DMS-273) was 4.15 µM (inactive). The GI50 (CCRF-CEM) was 1.83 µM (inactive), the GI50 (NCI-H226) was 18.7 µM (inactive) and the GI50 (SNB-19) was 15.4 µM (inactive). For the same molecule, the GI50 (M19-MEL) was 2.59 µM (inactive), the GI50 (IGROV-1) was 10.5 µM (inactive) and the GI50 (SK-MEL-2) was 13 µM (inactive). The GI50 (HCC 2998) was 5.74 µM (inactive), the GI50 (BT-549) was 18.9 µM (inactive) and the GI50 (HT-29) was 4.81 µM (inactive). The GI50 (HCT-116) was 3.56 µM (inactive), the GI50 (PC-3) was 11.5 µM (inactive) and the GI50 (SF-268) was 5.35 µM (inactive). The GI50 (MDA-MB-231) was 6.43 µM (inactive), the GI50 (DMS-114) was 4.24 µM (inactive) and the GI50 (A549) was 19.8 µM (inactive). The GI50 (HCT-15) was 2.44 µM, the GI50 (MOLT-4) was 3.05 µM (inactive) and the GI50 (M14) was 4.73 µM (inactive). The GI50 (MDA-N) was 5.47 µM (inactive), the GI50 (NCI-H23) was 8.73 µM (inactive) and the GI50 (DU-145) was 20.1 µM (inactive). For the same molecule, the GI50 (NCI-H460) was 16.6 µM (inactive), the GI50 (TK-10) was 3.53 µM (inactive) and the GI50 (DLD-1) was 2.23 µM (inactive). The GI50 (KM-20L2) was 8.73 µM (inactive), the GI50 (T47D) was 2.86 µM (inactive) and the GI50 (LXFL 529) was 1.99 µM (inactive). For the same molecule, the GI50 (LOX IMVI) was 1.89 µM (inactive), the GI50 (786-0) was 1.98 µM (inactive) and the GI50 (K562) was 2.4 µM (inactive). For the same molecule, the GI50 (COLO 205) was 3.15 µM (inactive), the GI50 (UACC-62) was 5.64 µM (inactive) and the GI50 (HOP-18) was 15.4 µM (inactive). For the same molecule, the GI50 (SNB-75) was 11 µM (inactive), the GI50 (NCI-H522) was 2.85 µM (inactive) and the GI50 (SR) was 1.85 µM (inactive). The GI50 (A498) was 17 µM (inactive), the GI50 (SK-MEL-5) was 14.3 µM (inactive) and the GI50 (OVCAR-5) was 16.9 µM (inactive). For the same molecule, the GI50 (Hs-578T) was 7 µM (inactive).

— ChEMBL document CHEMBL1201862, “PubChem BioAssay data set” (2004)
